“Also recorded” adds a separate entry of the source.
What was measured:
[1] = Safety (TEAEs) of pevonedistat days 1, 3, 5 plus carboplatin/paclitaxel or docetaxel in 3-week cycles (part B); type: in vivo, human; conditions: for On-study deaths, patients: part B, Total (N = 7)
Method: This was a two-part (A and B), open-label, multicenter, mass balance, distribution, metabolism, excretion (DME) study in adult patients with advanced solid tumors. In part A, patients received a single IV infusion of [^14C]-pevonedistat 25 mg/m^2 (containing approximately 60–85 µCi, or 2.22–3.145 MBq, of total radioactivity) at a single center (Duna Medical Center, Budapest, Hungary). Patients were required to stay at the part A study site for approximately 8 days or until the discharge criteria were met, with a maximum estimated confinement period of 9–14 days. Upon completion of part A, patients had the option to participate in part B at Medical Center Hungarian Defense Forces, Budapest, Hungary. In part B, patients received treatment in 3-week cycles with either: pevonedistat 20 mg/m^2 on days 1, 3, and 5 plus carboplatin AUC5 and paclitaxel 175 mg/m^2 on day 1; or pevonedistat 25 mg/m^2 on days 1, 3, and 5 plus docetaxel 75 mg/m^2 on day 1. Treatment was administered for 12 cycles or until discontinuation criteria were met.
Blood samples were collected for total radioactivity and PK assessments in whole blood and plasma at prespecified time points (pre dose [within 1 h before the start of the pevonedistat infusion], end of infusion, then 0.5, 1, 2, 3, 4, 8, 12, 24, 48, 72, 96, 120, 144 and 168 hours post dose). Complete urinary and fecal output were collected for analysis of PK (urine) and total radioactivity (urine and feces) throughout the confinement period until discharge criteria were met. Bioanalytical assay methods are shown in the Supplementary Methods. Safety was assessed by incidence and severity of TEAEs, vital signs, physical examinations, electrocardiograms, and clinical laboratory tests, and toxicities were graded according to the National Cancer Institute Common Terminology Criteria for Adverse Events (NCI CTCAE), version 4.03. In part B, disease assessments were conducted using radiological evaluations (computed tomography [CT] scan or magnetic resonance imaging [MRI], as clinically indicated).
PK data were summarized using descriptive statistics, and the PK and mass balance parameters described in Supplementary Table S1 were calculated by non-compartmental analysis for each individual patient. Safety was assessed in all patients who received at least one dose of pevonedistat, and TEAEs were coded according to the Medical Dictionary for Regulatory Activities (MedDRA), version 20.0. Analysis of efficacy in part B was descriptive; disease response was assessed in all patients who received at least one dose of pevonedistat, had measurable disease (per entry criteria for part B), and had at least one post-baseline disease assessment. Response assessment was done by the investigator using Response Evaluation Criteria in Solid Tumors (RECIST) version 1.1. SAS version 9.4 was used for all statistical analyses.

[2] = tested on: human xenograft tumors of activated B-cell (ABC) and germinal center B-cell (GCB) diffuse large B-cell lymphoma (DLBCL); parameters: method as in PMID 20525923; conditions: in vivo administration, mice; cited from earlier work
[3] = tested on: acute myeloid leukemia (AML) xenograft models; parameters: method as in PMID 20203261; conditions: mice; cited from earlier work
[4] = parameters: method as in PMID 30845347; conditions: strong and moderate CYP3A inhibitors (itraconazole); cited from earlier work
[5] = human, in vivo, 12 3-week cycles

In the case of `NS(=O)(=O)OC[C@@H]1C[C@@H](n2ccc3c(N[C@H]4CCc5ccccc54)ncnc32)C[C@@H]1O` [Pevonedistat], the “Abdominal distension, All Grades” value ([1]; human, in vivo) is reported as 1 (14.3) n (%), the “Abdominal distension, Grade ≥ 3” value ([1]; human, in vivo) is reported as 0 n (%) and the “Abdominal pain upper, All Grades” value ([1]; human, in vivo) is reported as 1 (14.3) n (%). The “Abdominal pain upper, Grade ≥ 3” value ([1]; human, in vivo) was 0 n (%), the “Abdominal pain, All Grades” value ([1]; human, in vivo) was 1 (14.3) n (%) and the “Abdominal pain, Grade ≥ 3” value ([1]; human, in vivo) was 0 n (%). For the same compound, the “Alopecia, All Grades” value ([1]; human, in vivo) was 1 (14.3) n (%), the “Alopecia, Grade ≥ 3” value ([1]; human, in vivo) was 0 n (%) and the “Arthralgia, All Grades” value ([1]; human, in vivo) was 1 (14.3) n (%). The “Arthralgia, Grade ≥ 3” value ([1]; human, in vivo) was 0 n (%), the “Asthenia, All Grades” value ([1]; human, in vivo) was 3 patients (42.9%) n (%) and the “Back pain, All Grades” value ([1]; human, in vivo) was 1 (14.3) n (%). The “Back pain, Grade ≥ 3” value ([1]; human, in vivo) was 0 n (%), the “Blood bilirubin increased, All Grades” value ([1]; human, in vivo) was 1 (14.3) n (%) and the “Blood bilirubin increased, Grade ≥ 3” value ([1]; human, in vivo) was 0 n (%). For the same compound, the “Blood creatinine increased, All Grades” value ([1]; human, in vivo) was 1 (14.3) n (%), the “Blood creatinine increased, Grade ≥ 3” value ([1]; human, in vivo) was 0 n (%) and the “Blood urea increased, All Grades” value ([1]; human, in vivo) was 1 (14.3) n (%). The “Blood urea increased, Grade ≥ 3” value ([1]; human, in vivo) was 0 n (%), the “Bone pain, All Grades” value ([1]; human, in vivo) was 1 (14.3) n (%) and the “Bone pain, Grade ≥ 3” value ([1]; human, in vivo) was 0 n (%). For the same compound, the “Chest pain, All Grades” value ([1]; human, in vivo) was 1 (14.3) n (%), the “Chest pain, Grade ≥ 3” value ([1]; human, in vivo) was 0 n (%) and the “Chills, All Grades” value ([1]; human, in vivo) was 1 (14.3) n (%). The “Chills, Grade ≥ 3” value ([1]; human, in vivo) was 0 n (%), the “Conjunctival hemorrhage, All Grades” value ([1]; human, in vivo) was 1 (14.3) n (%) and the “Conjunctival hemorrhage, Grade ≥ 3” value ([1]; human, in vivo) was 0 n (%). For the same compound, the “Diarrhea, All Grades” value ([1]; human, in vivo) was 3 patients (42.9%) n (%), the “Dyspnea, All Grades” value ([1]; human, in vivo) was 1 (14.3) n (%) and the “Dyspnea, Grade ≥ 3” value ([1]; human, in vivo) was 0 n (%). The “Edema peripheral, All Grades” value ([1]; human, in vivo) was 1 (14.3) n (%), the “Edema peripheral, Grade ≥ 3” value ([1]; human, in vivo) was 0 n (%) and the “Fibrosarcoma, All Grades” value ([1]; human, in vivo) was 1 (14.3) n (%). For the same compound, the “Fibrosarcoma, Grade ≥ 3” value ([1]; human, in vivo) was 1 (14.3) n (%), the “General physical health deterioration, All Grades” value ([1]; human, in vivo) was 1 (14.3) n (%) and the “General physical health deterioration, Grade ≥ 3” value ([1]; human, in vivo) was 1 (14.3) n (%). For the same compound, the “Grade ≥ 3 drug-related decreased platelet count” value ([1]; human, in vivo) was 1 patient, the “Grade ≥ 3 drug-related increased ALT and AST” value ([1]; human, in vivo) was 1 patient and the “Leukocytosis, All Grades” value ([1]; human, in vivo) was 1 (14.3) n (%). For the same compound, the “Leukocytosis, Grade ≥ 3” value ([1]; human, in vivo) was 0 n (%), the “Leukopenia, All Grades” value ([1]; human, in vivo) was 1 (14.3) n (%) and the “Leukopenia, Grade ≥ 3” value ([1]; human, in vivo) was 0 n (%). The “Mueller’s mixed tumor, All Grades” value ([1]; human, in vivo) was 1 (14.3) n (%), the “Mueller’s mixed tumor, Grade ≥ 3” value ([1]; human, in vivo) was 0 n (%) and the “Nausea, All Grades” value ([1]; human, in vivo) was 3 patients (42.9%) n (%). The “Pain, Grade ≥ 3” value ([1]; human, in vivo) was 0 n (%), the “Peripheral venous disease, All Grades” value ([1]; human, in vivo) was 1 (14.3) n (%) and the “Peripheral venous disease, Grade ≥ 3” value ([1]; human, in vivo) was 0 n (%). The “Platelet count decreased, All Grades” value ([1]; human, in vivo) was 1 (14.3) n (%), the “Platelet count decreased, Grade ≥ 3” value ([1]; human, in vivo) was 1 (14.3) n (%) and the “Pneumonia, All Grades” value ([1]; human, in vivo) was 1 (14.3) n (%). For the same compound, the “Pneumonia, Grade ≥ 3” value ([1]; human, in vivo) was 1 (14.3) n (%), the “Pyrexia, All Grades” value ([1]; human, in vivo) was 2 (28.6) n (%) and the “Pyrexia, Grade ≥ 3” value ([1]; human, in vivo) was 0 n (%). For the same compound, the “Rash, All Grades” value ([1]; human, in vivo) was 1 (14.3) n (%), the “Rash, Grade ≥ 3” value ([1]; human, in vivo) was 0 n (%) and the “Serious TEAEs, patients” value ([1]; human, in vivo) was “Three patients (42.9%) n (%)”. For the same compound, the “Spinal compression fracture, All Grades” value ([1]; human, in vivo) was 1 (14.3) n (%), the “Spinal compression fracture, Grade ≥ 3” value ([1]; human, in vivo) was 0 n (%) and the “Swelling, All Grades” value ([1]; human, in vivo) was 1 (14.3) n (%). For the same compound, the “Swelling, Grade ≥ 3” value ([1]; human, in vivo) was 0 n (%), the “TEAEs, patients” value ([1]; human, in vivo) was 7 n (%) and the “TEAEs: Drug-related (any drug of the combination), patients” value ([1]; human, in vivo) was 6 patients (85.7%) n (%). For the same compound, the “TEAEs: Grade ≥ 3, patients” value ([1]; human, in vivo) was “Four patients (57.1%) n (%)”, the “TEAEs: Grade ≥ 3 drug-related, patients” value ([1]; human, in vivo) was 2 n (%) and the “Upper respiratory tract infection, All Grades” value ([1]; human, in vivo) was 1 (14.3) n (%). The “Upper respiratory tract infection, Grade ≥ 3” value ([1]; human, in vivo) was 0 n (%), the “Vomiting, All Grades” value ([1]; human, in vivo) was 4 patients (57.1%) n (%) and the “Weight decreased, All Grades” value ([1]; human, in vivo) was 1 (14.3) n (%). The “Weight decreased, Grade ≥ 3” value ([1]; human, in vivo) was 0 n (%), the “ALT increased, All Grades” value [1, 5] was 2 (28.6) n (%) and the “ALT increased, Grade ≥ 3” value [1, 5] was 1 (14.3) n (%). The “AST increased, All Grades” value [1, 5] was 2 (28.6) n (%), the “AST increased, Grade ≥ 3” value [1, 5] was 1 (14.3) n (%) and the “Anemia, All Grades” value [1, 5] was 2 (28.6) n (%). The “Anemia, Grade ≥ 3” value [1, 5] was 0 n (%), the “Asthenia, All Grades” value [1, 5] was 3 (42.9) n (%) and the “Asthenia, Grade ≥ 3” value [1, 5] was 0 n (%). For the same compound, the “Diarrhea, All Grades” value [1, 5] was 3 (42.9) n (%), the “Diarrhea, Grade ≥ 3” value [1, 5] was 0 n (%) and the “Fatigue, All Grades” value [1, 5] was 2 (28.6) n (%). For the same compound, the “Fatigue, Grade ≥ 3” value [1, 5] was 0 n (%), the “Nausea, All Grades” value [1, 5] was 3 (42.9) n (%) and the “Nausea, Grade ≥ 3” value [1, 5] was 0 n (%). For the same compound, the “Pain, All Grades” value [1, 5] was 2 (28.6) n (%), the “Serious TEAEs, patients” value [1, 5] was 3 (42.9) n (%) and the “Serious TEAEs: Drug-related, patients” value [1, 5] was 0 n (%). For the same compound, the “Serious TEAEs: Resulting in study discontinuation, patients” value [1, 5] was 1 (14.3) n (%), the “TEAEs, patients” value [1, 5] was 7 (100.0) n (%) and the “TEAEs: Drug-related (any drug of the combination), patients” value [1, 5] was 6 (85.7) n (%). The “TEAEs: Grade ≥ 3, patients” value [1, 5] was 4 (57.1) n (%), the “TEAEs: Grade ≥ 3 drug-related, patients” value [1, 5] was 2 (28.6) n (%) and the “TEAEs: Resulting in study drug discontinuation, patients” value [1, 5] was 1 (14.3) n (%). For the same compound, the “Thrombocytopenia, All Grades” value [1, 5] was 2 (28.6) n (%), the “Thrombocytopenia, Grade ≥ 3” value [1, 5] was 0 n (%) and the “Vomiting, All Grades” value [1, 5] was 4 (57.1) n (%). The “Vomiting, Grade ≥ 3” value [1, 5] was 0 n (%), the “Oral herpes, All Grades” value ([1]; human, in vivo, po) was 1 (14.3) n (%) and the “Oral herpes, Grade ≥ 3” value ([1]; human, in vivo, po) was 0 n (%). The “Serious TEAEs: Drug-related, patients” value ([1]; in vivo) was “none of which were considered related to treatment”, the “On-study deaths, patients” value [1] was 2 (28.6) n (%) and the “On-study deaths, patients” value ([1]; listed as pevonedistat) was “Two”. For the same compound, the tumor growth [2] was “complete tumor growth inhibition”, the disease course [3] was “durable disease regression” and the “effect of CYP3A inhibitors on pevonedistat exposure” value [4] was “did not indicate clinically meaningful alterations in its PK; also recorded: did not result in clinically meaningful increases in pevonedistat exposure”.

From publication PMC7960626, “Phase I study assessing the mass balance, pharmacokinetics, and excretion of [^14C]-pevonedistat, a NEDD8-activating enzyme inhibitor in patients with advanced solid tumors” (Investigational New Drugs, 2020)
